According to PubChem BioAssay AID1963830 (Molecular Pharmacology Branch, DTP, NCI, 2024):

Test system: 922993-354-T-J3-PDC complex spheroid viability
Assay: Anticancer human tumor 922993-354-T-J3-PDC patient-derived endometrial carcinoma cell line growth inhibition [POLQ]
Details: for IC50: curve of first compound; for viability, T/C: stronger effect = lower value
Description: Multicellular complex tumor spheroid response to Polymerase (POL) inhibitors (novobiocin, ART-558, RP6685) in combination with a variety of drugs and investigational agents in selected tumor cell lines
The POL inhibitors (novobiocin, ART-558, and RP6685) were evaluated both individually and in combination with standard of care and investigational anticancer small molecules within a complex spheroid model of solid tumors. . Complex spheroids include a stromal component modeled by human endothelial cells (HUVEC) and fibroblasts modeled by human mesenchymal stem cells (MSCs). The concentration ranges selected for each drug and investigational agent were based upon clinically achievable concentrations if the clinical Cmax of the agent was known.
Compounds. The drugs and investigational agents: novobiocin (NSC847541), ART-558 (NSC835418), RP-6685 (NSC848927), peposertib (NSC802822), ceralasertib (NSC780249), elimusertib (NSC800525), camonsertib (NSC841442), AZD-1390 (NSC803789), olaparib (NSC753686), talazoparib (NSC767125), rucaparib (NSC756644), sotorasib (NSC818433), MRTX-1133 (NSC836407), SN-38 (NSC673596), topotecan (NSC609699), epotoside (NSC141540), doxorubicin (NSC123127), gemcitabine (NSC613327), 5-fluorouracil (NSC19893), paclitaxel (NSC125973), vemurafenib (NSC761431), MSA-2 (NSC828583), SN-011 (NSC837082), adavosertib (NSC754352), prexasertib (NSC758257), carboplatin (NSC241240) and oxaliplatin (NSC266046), were obtained from the National Cancer Institute (NCI) Developmental Therapeutics Program Chemical Repository (21). The FDA-approved anticancer drug set is available from the Developmental Therapeutics Program at https://dtp.cancer.gov/organization/dscb/obtaining/. […] The stock solutions were prepared in dimethyl sulfoxide (DMSO, Sigma-Aldrich, St. Louis, MO, cat. D2650), except for the platinum compounds which were prepared in saline (Quality Biological, Gaithersburg, MD, cat. 114-055-101), at 800-fold the tested concentration and stored at -70 degrees C prior to their use. All drugs and investigational agents were tested over a range starting from a high concentration at or near the clinical Cmax and decreasing in half-log increments. If the clinical Cmax for an agent had not been determined, the highest concentration tested was 10 microM, except for SN-38, which was tested at a high concentration of 1 microM.
Cell Culture. All cells were maintained in an incubator at 37 degrees C and 5% CO2 with 95% humidity. The PDC lines were cultured according to standard operating procedures established by the NCI PDMR (https://pdmr.cancer.gov). Table 3 of the manuscript, lists the cell lines along with the number of the three cell types plated to form the mct-spheroids and media for tumor cell growth. After thawing, all PDC lines, except 997537-175-T-J1-PDC and 415267-285-R-J2-PDC, were cultured in Matrigel-coated flasks prepared with a working solution of 1X Ham's F-12 nutrient mix, without supplementation (Thermo Fisher Scientific, cat. 11765054), 100 U/mL penicillin-streptomycin (Thermo Fisher Scientific, cat. 15140122), and 2.5% Matrigel (Corning Inc., Corning, NY, cat. 354248) for the first three passages. The two PDC lines 997537-175-T-J1-PDC and 415267-285-R-J2-PDC were cultured on uncoated flasks. The 857933-349-R-J2-PDC line was cultured in 6C/Colon 1B media containing advanced DMEM/F-12 (Thermo Fisher Scientific, cat. 12634028), 10 mM HEPES (Thermo Fisher Scientific, cat. 15630080), 1X GlutaMAX supplement (Thermo Fisher Scientific, cat. 35050061), 0.1 mg/mL primocin (InvivoGen, San Diego, CA, cat. ant-pm-2), 10% defined fetal bovine serum, heat inactivated (HyClone Laboratories Inc., Logan, UT, cat. SH30070.03HI), 50% L-WRN conditioned media (ATCC, cat. CRL-3276), 1.25 mM N-Acetyl-L-cysteine (Sigma-Aldrich, cat. A9165), 10 mM nicotinamide (Sigma-Aldrich, cat. N0636), 1X B-27 supplement (Thermo Fisher Scientific, cat. 17504044), 1X N-2 supplement (Thermo Fisher Scientific, cat. […]

[1] = second compound 0.0316 µM, first compound 0.0316 µM
[2] = second compound 0.0316 µM, first compound 0.1 µM
[3] = second compound 0.0316 µM, first compound 0.316 µM
[4] = second compound 0.0316 µM, first compound 1 µM
[5] = second compound 0.0316 µM, first compound 3.16 µM
[6] = second compound 0.0316 µM, first compound 10 µM
[7] = second compound 0.1 µM, first compound 0.0316 µM
[8] = second compound 0.1 µM, first compound 0.1 µM
[9] = second compound 0.1 µM, first compound 0.316 µM
[10] = second compound 0.1 µM, first compound 1 µM
[11] = second compound 0.1 µM, first compound 3.16 µM
[12] = second compound 0.1 µM, first compound 10 µM
[13] = second compound 0.316 µM, first compound 0.0316 µM
[14] = second compound 0.316 µM, first compound 0.1 µM
[15] = second compound 0.316 µM, first compound 0.316 µM
[16] = second compound 0.316 µM, first compound 1 µM
[17] = second compound 0.316 µM, first compound 3.16 µM
[18] = second compound 0.316 µM, first compound 10 µM
[19] = second compound 1 µM, first compound 0.0316 µM
[20] = second compound 1 µM, first compound 0.1 µM
[21] = second compound 1 µM, first compound 0.316 µM
[22] = second compound 1 µM, first compound 1 µM
[23] = second compound 1 µM, first compound 3.16 µM
[24] = second compound 1 µM, first compound 10 µM
[25] = second compound 3.16 µM, first compound 0.0316 µM
[26] = second compound 3.16 µM, first compound 0.1 µM
[27] = second compound 3.16 µM, first compound 0.316 µM
[28] = second compound 3.16 µM, first compound 1 µM
[29] = second compound 3.16 µM, first compound 3.16 µM
[30] = second compound 3.16 µM, first compound 10 µM
[31] = second compound 10 µM, first compound 0.0316 µM
[32] = second compound 10 µM, first compound 0.1 µM
[33] = second compound 10 µM, first compound 0.316 µM
[34] = second compound 10 µM, first compound 1 µM
[35] = second compound 10 µM, first compound 3.16 µM
[36] = second compound 10 µM, first compound 10 µM
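Further: spheroids exposed to the agents for one week.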
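Wherever viability, T/C is given: 100% = DMSO vehicle control wells.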

CCCS(=O)(=O)Nc1ccc(F)c(C(=O)c2c[nH]c3ncc(-c4ccc(Cl)cc4)cc23)c1F + Nc1ccc(C#CCN(C(=O)Cc2ncc(C(F)(F)F)cc2C(F)(F)F)c2ccc(F)cc2)nn1
IC50 (second compound 0.0316 µM): > 10 µM | IC50 (second compound 0.1 µM): > 10 µM | IC50 (second compound 0.316 µM): > 10 µM | IC50 (second compound 1 µM): > 10 µM | IC50 (second compound 3.16 µM): > 10 µM | IC50 (second compound 10 µM): > 10 µM | viability, T/C [1]: 99.3% | viability, T/C [2]: 107% | viability, T/C [3]: 105% | viability, T/C [4]: 107% | viability, T/C [5]: 104% | viability, T/C [6]: 98.9% | viability, T/C [7]: 103% | viability, T/C [8]: 108% | viability, T/C [9]: 101% | viability, T/C [10]: 107% | viability, T/C [11]: 107% | viability, T/C [12]: 104% | viability, T/C [13]: 109% | viability, T/C [14]: 106% | viability, T/C [15]: 105% | viability, T/C [16]: 107% | viability, T/C [17]: 107% | viability, T/C [18]: 93.7% | viability, T/C [19]: 106% | viability, T/C [20]: 104% | viability, T/C [21]: 105% | viability, T/C [22]: 107% | viability, T/C [23]: 102% | viability, T/C [24]: 98.5% | viability, T/C [25]: 102% | viability, T/C [26]: 103% | viability, T/C [27]: 99.1% | viability, T/C [28]: 101% | viability, T/C [29]: 104% | viability, T/C [30]: 92.4% | viability, T/C [31]: 97.7% | viability, T/C [32]: 100% | viability, T/C [33]: 103% | viability, T/C [34]: 98.7% | viability, T/C [35]: 100% | viability, T/C [36]: 94.8%

CC1COCCN1c1cc(C2(S(C)(=N)=O)CC2)nc(-c2ccnc3[nH]ccc23)n1 (centres undefined) + COC1C(OC(N)=O)C(O)C(Oc2ccc3c(O)c(NC(=O)c4ccc(O)c(CC=C(C)C)c4)c(=O)oc3c2C)OC1(C)C
IC50 (second compound 0.0316 µM): 9.95 µM | IC50 (second compound 0.1 µM): 7.81 µM | IC50 (second compound 0.316 µM): > 10 µM | IC50 (second compound 1 µM): > 10 µM | IC50 (second compound 3.16 µM): 8.35 µM | IC50 (second compound 10 µM): 8.17 µM | viability, T/C [1]: 94.7% | viability, T/C [2]: 94.6% | viability, T/C [3]: 108% | viability, T/C [4]: 105% | viability, T/C [5]: 80.4% | viability, T/C [6]: 49.8% | viability, T/C [7]: 105% | viability, T/C [8]: 92.2% | viability, T/C [9]: 95.6% | viability, T/C [10]: 93.2% | viability, T/C [11]: 80.2% | viability, T/C [12]: 41.5% | viability, T/C [13]: 81.1% | viability, T/C [14]: 105% | viability, T/C [15]: 106% | viability, T/C [16]: 101% | viability, T/C [17]: 87.2% | viability, T/C [18]: 52.5% | viability, T/C [19]: 102% | viability, T/C [20]: 101% | viability, T/C [21]: 92.5% | viability, T/C [22]: 88.6% | viability, T/C [23]: 72.6% | viability, T/C [24]: 52.8% | viability, T/C [25]: 91.8% | viability, T/C [26]: 103% | viability, T/C [27]: 103% | viability, T/C [28]: 85.7% | viability, T/C [29]: 77% | viability, T/C [30]: 44.9% | viability, T/C [31]: 89.1% | viability, T/C [32]: 84.7% | viability, T/C [33]: 96% | viability, T/C [34]: 84.2% | viability, T/C [35]: 64.7% | viability, T/C [36]: 46.9%
